Activity calls are given as the source filed them. The rule behind the calls is not given here.
Key:
Assay type in all cases: cell-based
[1] = target: T1, Glucocorticoid receptor (Homo sapiens) (UniProt P04150); test: Inhibition of EGFP-tagged GR nuclear translocation in human U2OS cells at 2.5 uM after 1 hr using Hoechst staining by fluorescence microscopy relative to control
T1 sequence (whole entry): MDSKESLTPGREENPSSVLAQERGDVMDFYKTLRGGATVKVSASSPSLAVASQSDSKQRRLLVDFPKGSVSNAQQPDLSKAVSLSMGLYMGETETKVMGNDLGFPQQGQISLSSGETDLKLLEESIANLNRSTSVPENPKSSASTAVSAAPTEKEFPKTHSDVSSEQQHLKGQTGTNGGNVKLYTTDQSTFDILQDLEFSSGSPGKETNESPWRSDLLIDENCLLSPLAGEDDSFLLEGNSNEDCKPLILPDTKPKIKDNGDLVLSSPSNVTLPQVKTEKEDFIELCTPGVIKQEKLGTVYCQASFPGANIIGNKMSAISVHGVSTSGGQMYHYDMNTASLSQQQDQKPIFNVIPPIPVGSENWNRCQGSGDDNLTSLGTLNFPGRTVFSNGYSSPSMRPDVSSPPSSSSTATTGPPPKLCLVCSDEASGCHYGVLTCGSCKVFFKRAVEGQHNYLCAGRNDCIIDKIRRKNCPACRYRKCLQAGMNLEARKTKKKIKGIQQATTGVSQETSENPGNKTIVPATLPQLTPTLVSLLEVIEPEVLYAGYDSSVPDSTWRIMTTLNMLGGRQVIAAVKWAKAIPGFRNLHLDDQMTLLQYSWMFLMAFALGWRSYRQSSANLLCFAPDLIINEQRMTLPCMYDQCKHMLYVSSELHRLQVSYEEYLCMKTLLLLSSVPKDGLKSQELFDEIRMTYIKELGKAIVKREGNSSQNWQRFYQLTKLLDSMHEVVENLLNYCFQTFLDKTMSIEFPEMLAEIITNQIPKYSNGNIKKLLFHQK

[2] = target: T1, Glucocorticoid receptor (Homo sapiens); test: Inhibition of EGFP-tagged GR nuclear translocation in human U2OS cells at 250 uM after 1 hr using Hoechst staining by fluorescence microscopy relative to control
[3] = target: T1, Glucocorticoid receptor (Homo sapiens); test: Inhibition of EGFP-tagged GR nuclear translocation in human SH-SY5Y cells at 2.5 uM after 1 hr using Hoechst staining by fluorescence microscopy relative to control
[4] = target: T1, Glucocorticoid receptor (Homo sapiens); test: Inhibition of EGFP-tagged GR nuclear translocation in human HaCaT cells at 2.5 uM after 1 hr using Hoechst staining by fluorescence microscopy relative to control
[5] = target: T1, Glucocorticoid receptor (Homo sapiens); test: Inhibition of EGFP-tagged GR nuclear translocation in human SH-SY5Y cells at 250 uM after 1 hr using Hoechst staining by fluorescence microscopy relative to control
[6] = target: T1, Glucocorticoid receptor (Homo sapiens); test: Inhibition of EGFP-tagged GR nuclear translocation in human HaCaT cells at 250 uM after 1 hr using Hoechst staining by fluorescence microscopy relative to control
[7] = test system: L929; test: Cytotoxicity against mouse L929 cells after 5 days by MTT assay; details: for Activity: mouse, l929, 120 h
[8] = Inhibition of IL1-beta-induced GFP-tagged NFkappaB nuclear translocation in CHO cells pretreated for 4 hrs before IL1-beta challenge using Hoechst staining by fluorescence microscopy relative to control; details: Cricetulus griseus

SMILES | inhibition [1] | inhibition [2] | inhibition [3] | inhibition [4] | inhibition [5] | inhibition [6] | Activity [7] | IC50 ([7]; Mus musculus, L929, 120 h) [µM] | IC50 [8] [µM]
CC(=O)[C@@H](C)[C@H]1CC[C@H]2[C@@H]3[C@H](O)CC4=CC(=O)C=C[C@]4(C)[C@H]3C[C@H](O)[C@]12C (relative stereo) | Active | Active | Active | Active | Active | Active | Non-toxic | – | –
C[C@H](C(=O)O)[C@H]1CC[C@H]2[C@@H]3[C@H](O)CC4=CC(=O)C=C[C@]4(C)[C@H]3C[C@H](O)[C@]12C (relative stereo) | Active | Active | Active | Active | Active | Active | – | 30 | –
C[C@H](CCC(=O)O)[C@H]1CC[C@H]2[C@@H]3[C@H](O)CC4=CC(=O)C=C[C@]4(C)[C@H]3C[C@H](O)[C@]12C (relative stereo) | Active | Active | Active | Active | Active | Active | Non-toxic | – | 71

From ChEMBL document CHEMBL1914359, “Bendigoles D-F, bioactive sterols from the marine sponge-derived Actinomadura sp. SBMs009” (Bioorg Med Chem, 2011)
